PubChem BioAssay (NCI)
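Method: 48-hour compound exposure of cells in 96-well plates, five concentrations, linear interpolation of endpoints. GI50 is the concentration that inhibits growth by half. Definition used: TGI = concentration required for complete inhibition of growth.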

Columns and labels:
Assay in all cases: NCI-60 cell line screen, 48 h
NCI-H23 lung = test system: NCI-H23 lung
NCI-H460 lung = test system: NCI-H460 lung
NCI-H522 lung = test system: NCI-H522 lung
NCI/ADR-RES ovarian = test system: NCI/ADR-RES ovarian
OVCAR-3 ovarian = test system: OVCAR-3 ovarian
OVCAR-4 ovarian = test system: OVCAR-4 ovarian
OVCAR-5 ovarian = test system: OVCAR-5 ovarian
OVCAR-8 ovarian = test system: OVCAR-8 ovarian
PC-3 prostate = test system: PC-3 prostate
RPMI-8226 leukemia = test system: RPMI-8226 leukemia
RXF 393 renal = test system: RXF 393 renal
SF-268 CNS = test system: SF-268 CNS
SF-295 CNS = test system: SF-295 CNS
SF-539 CNS = test system: SF-539 CNS
SK-MEL-2 melanoma = test system: SK-MEL-2 melanoma
SK-MEL-28 melanoma = test system: SK-MEL-28 melanoma
SK-MEL-5 melanoma = test system: SK-MEL-5 melanoma
SN12C renal = test system: SN12C renal
SNB-19 CNS = test system: SNB-19 CNS
SNB-75 CNS = test system: SNB-75 CNS
SR leukemia = test system: SR leukemia
SW-620 colon = test system: SW-620 colon
T-47D breast = test system: T-47D breast
TK-10 renal = test system: TK-10 renal
U251 CNS = test system: U251 CNS
UACC-257 melanoma = test system: UACC-257 melanoma
UACC-62 melanoma = test system: UACC-62 melanoma
UO-31 renal = test system: UO-31 renal

CN1CCN(c2nc(-c3csc(-c4cccs4)n3)cc3ccccc23)CC1
GI50 (NCI-H23 lung): 1.93 µM
TGI (NCI-H23 lung): 3.92 µM
GI50 (NCI-H460 lung): 1.78 µM
TGI (NCI-H460 lung): 3.25 µM
GI50 (NCI-H522 lung): 1.94 µM
TGI (NCI-H522 lung): 3.95 µM
GI50 (NCI/ADR-RES ovarian): 1.93 µM
TGI (NCI/ADR-RES ovarian): 3.92 µM
GI50 (OVCAR-3 ovarian): 1.84 µM
TGI (OVCAR-3 ovarian): 3.64 µM
GI50 (OVCAR-4 ovarian): 2.18 µM
TGI (OVCAR-4 ovarian): 4.73 µM
GI50 (OVCAR-5 ovarian): 1.66 µM
TGI (OVCAR-5 ovarian): 3.13 µM
GI50 (OVCAR-8 ovarian): 1.89 µM
TGI (OVCAR-8 ovarian): 3.97 µM
GI50 (PC-3 prostate): 1.98 µM
TGI (PC-3 prostate): 4.48 µM
GI50 (RPMI-8226 leukemia): 2.09 µM
TGI (RPMI-8226 leukemia): 4.98 µM
GI50 (RXF 393 renal): 1.78 µM
TGI (RXF 393 renal): 3.9 µM
GI50 (SF-268 CNS): 1.82 µM
TGI (SF-268 CNS): 3.6 µM
GI50 (SF-295 CNS): 1.82 µM
TGI (SF-295 CNS): 3.39 µM
GI50 (SF-539 CNS): 1.64 µM
TGI (SF-539 CNS): 3.04 µM
GI50 (SK-MEL-2 melanoma): 1.47 µM
TGI (SK-MEL-2 melanoma): 3.48 µM
GI50 (SK-MEL-28 melanoma): 1.77 µM
TGI (SK-MEL-28 melanoma): 3.24 µM
GI50 (SK-MEL-5 melanoma): 1.71 µM
TGI (SK-MEL-5 melanoma): 3.12 µM
GI50 (SN12C renal): 1.81 µM
TGI (SN12C renal): 3.47 µM
GI50 (SNB-19 CNS): 2.14 µM
TGI (SNB-19 CNS): 5.36 µM
GI50 (SNB-75 CNS): 1.36 µM
TGI (SNB-75 CNS): 2.91 µM
GI50 (SR leukemia): 3.1 µM
GI50 (SW-620 colon): 1.75 µM
TGI (SW-620 colon): 3.25 µM
GI50 (T-47D breast): 1.85 µM
TGI (T-47D breast): 4.56 µM
GI50 (TK-10 renal): 1.98 µM
TGI (TK-10 renal): 3.65 µM
GI50 (U251 CNS): 1.66 µM
TGI (U251 CNS): 3.29 µM
GI50 (UACC-257 melanoma): 1.87 µM
TGI (UACC-257 melanoma): 3.68 µM
GI50 (UACC-62 melanoma): 1.69 µM
TGI (UACC-62 melanoma): 3.15 µM
GI50 (UO-31 renal): 1.66 µM
TGI (UO-31 renal): 3.17 µM
